Assay results: EP0101588A1, “Compositions comprising amino and diamino acid derivatives and use thereof as plant growth stimulants” (S.I.P.C.A.M. S.p.A. Società Italiana Prodotti Chimici e per …, priority 1982, dated 1984)
Where a name gives a salt, the structure may show the parent alone.

Key:
Type in all cases: in vivo
Italy grapevines = assay: Vineyard trial, applications mixed with fungicides; details: 1 g/100 m^2, 2 weekly applications before and 6 after flowering, mixed with fungicide mixtures; untreated control 234
spinach = assay: Field trial on spinach, 4 weekly treatments; details: 2 g/100 m^2 per treatment, untreated control 8.3
San Marzano tomatoes = assay: Field trial on tomatoes, spraying before and after flowering; details: 3 g/100 m^2 per treatment, 2 treatments before flowering and 3 weekly after flowering; untreated control 321
Radish = assay: Greenhouse radish crop, spraying after emergence; details: 0.01 g/m^2 per treatment, two treatments at an interval of 4 days; for Radish crop roots only: untreated control 165; for Radish crop whole plants: untreated control 198
[1] = system: thiosemicarbazide-treated rabbits with epileptic type syndromes; assay: Intramuscular injection in rabbits with epileptic type syndromes; details: 1 ml of 10% aqueous solution, as long as the level of the compound remains adequate
Procedure: Prepare an aqueous solution containing 10% pure N-carboxymethyl-gamma-aminobutyric acid disodium salt and autoclave for 2 h at 115°C.
Inject very slowly by intramuscular route 1 ml of the solution thus prepared in thiosemicarbazide-treated rabbits with epileptic type syndromes.

lettuce = assay: Field trial on lettuce, 4 weekly treatments; details: 2 g/100 m^2 per treatment, untreated control 18.0

| Structure (SMILES) | Grape harvest (Italy grapevines) | Harvest Spinach (spinach) | Fruit harvest (San Marzano tomatoes) | Radish crop roots only (Radish) | Radish crop whole plants (Radish) | convulsions [1] | Harvest Lettuce (lettuce) |
| --- | --- | --- | --- | --- | --- | --- | --- |
| O=C([O-])CCCNCC(=O)[O-].[Na+].[Na+] [N-carboxymethyl gamma-amino-butyric acid disodium salt] | 351 kg/100 m^2 | 12.6 kg/100 m^2 | 569 kg/100 m^2 | 280 g/m^2 | 350 g/m^2 | convulsions disappear | 26.5 kg/100 m^2 |
| NCCCCNCC(=O)[O-].[Na+] [N-carboxymethyl-1,4-diamino-butane sodium salt] | 345 kg/100 m^2 | 11.8 kg/100 m^2 | 574 kg/100 m^2 | 272 g/m^2 | 335 g/m^2 | – | 23.5 kg/100 m^2 |
| CC(NCCCC(=O)O)C(=O)O (stereo not shown) [N-methylcarboxymethyl-gamma-aminobutyric acid disodium salt] | 320 kg/100 m^2 | 11.5 kg/100 m^2 | 513 kg/100 m^2 | 262 g/m^2 | 321 g/m^2 | – | 24.3 kg/100 m^2 |
